One compound from patent US8518953B2, “Aminopyrimidines useful as inhibitors of protein kinases” (Vertex Pharmaceuticals Incorporated, priority 2007, dated 2013) can be followed below.

Each structure is given as a SMILES string. pIC50: −log10 of the molar value.

In experiment [1] the test system is human umbilical vein endothelial cells (HUVEC). As to the kind of experiment: In Vitro Model of Angiogenesis Using HUVEC and Skin Fibroblasts. The experiment is classed as cell-based. The settings on record: HUVEC cultures. The source says:
Compounds are screened for the ability to enhance angiogenesis in human umbilical vein endothelial cells (HUVEC). This method, adapted from Nakatsu et al. Microvas. Res. 2003, describes a protocol that recapitulates the major events essential for new vessel growth: budding, cell migration, cell proliferation, lumen formation, branching, and anastomosis. HUVEC are used between P3 and P4. HUVEC are mixed with dextran coated cytodex 3 micro-carriers (Amersham Pharmacia) at a concentration of 400 HUVEC per bead in 1 ml of EGM-2 (2% FBS) medium (Clonetics). Beads with cells are then shaken gently every 20 min for 4 hr at 37° C. and 5% CO2. After incubating, beads with cells are transferred to a T-25 tissue culture flask and left for 12-16 hr in 5 ml of EGM-2 at 37° C. 5% CO2. The following day beads with cells are washed three times with EGM-2 and re-suspended at a concentration of 200 cell-coated beads/ml in 2.5 mg/ml of fibrinogen (Sigma) with 0.15 U/ml of aprotinin (Sigma) at a pH of 7.4. 500 ul of fibrinogen/bead solution is then added to 0.625 U of thrombin (Sigma) in one well of a 24 well tissue culture plate. Fibrinogen/Bead solution is allowed to clot for 5 min at room temperature and then at 37° C. 5% CO2 for 20 min. 1 ml of EGM-2 with 0.15 U/ml of aprotinin is then added to each well and equilibrated with the fibrin clot for 30 min at 37° C. and 5% CO2. Next, media is removed from the well and replaced with 1 ml of fresh medium. 20,000 skin fibroblasts (SF ATCC Detroit 551) are plated on top of the clot and medium is changed every other day. […] Angiogenesis is scored by quantification of images captured on an inverted microscope at 10× and 20× magnification for vessel length, number of vessels and branches per bead using NIH Image J software. […] YFP positive HUVEC are then cultured as described above and quantification of vessel formation is determined by calculating the area under the threshold fluorescence using NIH Image J software. In both cases, enhanced angiogenesis is determined by comparing compound treated cultures with a DMSO control culture at the same time point.

For experiment [2], the target named is T1, GSK3β TYR 216 (Homo sapiens, UniProt P49841).
T1 construct: western blotting of Jurkat cells dosed with the compounds; endogenous in cells; host or cells: Jurkat cells
As to the kind of experiment: GSK3β p-TYR Inhibition Assay (western blotting of Jurkat cells). Format: cell-based. The note with it: western blot, read-out: GSK3b pTYR 216: IC50. As for the experimental part:
Compounds are screened for their ability to inhibit the phosphorylation of tyrosine (TYR) residues through the use of western blotting of Jurkat cells dosed with the compounds. The phosphorylation of the specific TYR residues tested are GSK3α TYR 279 and GSK3β TYR 216.
Jurkat cells are seeded at a density of 2×10^5 cells/well in a 12 well dish in starvation media (RPMI+1% FBS+P/S). Following starvation for 16 hours, the compound is dosed into each well at a final DMSO concentration of 0.3% and cells are incubated o/n at 37° C. 5% CO2. The next day, cells are spun down at 1500 rpm, washed with PBS, and lysed in 100 uL Laemli sample buffer with β-mercaptoethanol.
15 microliters (uL) of cell lysates are loaded onto a 10% tris-glycine gel and run at 120 v for 2 hours or until dye front runs off of the gel. The protein is then transferred onto a PVDF membrane at 100 v for 60 min. PBST (PBS containing 0.1% Tween 20, such as 1 ml Tween per 1 L of PBS) is then made up and used for all washes and antibody incubations. The blot is blocked in 5% nonfat milk PBST for one hour.
The primary antibody (GSK-3α/β pTYR 279/216 at 1:1000 dilution Upstate cat#05-413) is then added in […] PBST overnight at 4° C. with gentle rocking. The blot is then washed in PBST for 5 min. This is then repeated 4 times. […]
(In general: Immunoblotting shows a protein as a band on a membrane.)

[3] abbreviates: concentrations that have been shown to induce β-catenin.

T1 sequence (P49841 whole entry): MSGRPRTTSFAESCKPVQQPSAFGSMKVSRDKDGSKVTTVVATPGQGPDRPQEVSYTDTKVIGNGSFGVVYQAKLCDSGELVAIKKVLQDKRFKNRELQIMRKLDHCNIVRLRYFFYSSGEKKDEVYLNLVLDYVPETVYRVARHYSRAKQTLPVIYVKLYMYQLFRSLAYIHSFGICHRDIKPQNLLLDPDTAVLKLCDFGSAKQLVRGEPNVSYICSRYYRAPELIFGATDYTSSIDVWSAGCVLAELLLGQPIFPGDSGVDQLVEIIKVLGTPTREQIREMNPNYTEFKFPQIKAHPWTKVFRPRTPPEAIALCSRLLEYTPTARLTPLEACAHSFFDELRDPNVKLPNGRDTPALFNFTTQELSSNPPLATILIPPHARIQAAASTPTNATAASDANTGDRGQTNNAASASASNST

What is called pIC50 is the negative decadic logarithm of the IC50, by convention in mol/L. For the compound `Cc1nc(-c2ccccc2Cl)nc(Nc2n[nH]c3ncc(F)cc23)c1C` [Compound I-1, N-(2-(2-chlorophenyl)-5,6-dimethylpyrimidin-4-yl)-5-fluoro-1H-pyrazolo[3,4-b]pyridin-3-amine], the “vessel and network formation” value in experiment [1] (10 nM, 7 days) was “increase vessel and network formation”. For the same compound, in experiment [1] (setting [3]), the cell proliferation result is “increased cell proliferation was observed” and the vessel formation entry was “vessel formation was inhibited”. The pIC50 in experiment [2] was 8.52.
